# In ChEMBL document CHEMBL1914348, “Discovery of pyrazoles as novel FPR1 antagonists” (Bioorg Med Chem Lett, 2011):
# Active and inactive are the calls of the source. The calls are words filed in the database; no cut-off is given here.
# Legend:
# fMet-Leu-Phe receptor [1] = biological target: T1, fMet-Leu-Phe receptor (Homo sapiens, UniProt P21462); assay: Antagonist activity at human FPR1 in human neutrophils assessed as inhibition of fMLF-stimulated intracellular calcium mobilisation by FLIPR assay; format: functional, cell-based
# T1 sequence (P21462 whole entry): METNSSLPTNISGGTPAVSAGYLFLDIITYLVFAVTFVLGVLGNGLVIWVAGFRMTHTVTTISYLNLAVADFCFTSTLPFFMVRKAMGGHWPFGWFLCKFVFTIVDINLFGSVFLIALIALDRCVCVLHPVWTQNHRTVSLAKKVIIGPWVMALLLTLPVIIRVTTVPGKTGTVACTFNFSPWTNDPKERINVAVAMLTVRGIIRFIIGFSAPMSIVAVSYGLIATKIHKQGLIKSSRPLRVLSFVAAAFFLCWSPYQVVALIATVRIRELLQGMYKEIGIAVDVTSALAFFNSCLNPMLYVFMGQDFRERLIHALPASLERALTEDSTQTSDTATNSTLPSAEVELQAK
# [2] = biological target: T2, fMet-Leu-Phe receptor (Homo sapiens) (UniProt P21462); assay: Antagonist activity at human FPR1 in human neutrophils assessed as inhibition of fMLF-stimulated intracellular calcium mobilisation at 50 uM by FLIPR assay; format: functional, cell-based
# T2 sequence (whole entry): T1 sequence (P21462 whole entry)
# [3] = Lipophilicity, log D of the compound; format: physicochemical; details: octanol/water
# [4] = Fraction unbound in rat; format: ADME, organism-based; details: in vivo
# Cytochrome P450 3A4 = Cytochrome P450 3A4 (Homo sapiens, UniProt P08684); assay: Inhibition of CYP3A4; format: ADME
# fMet-Leu-Phe receptor [5] = biological target: T1, fMet-Leu-Phe receptor; assay: Antagonist activity at FPR1 in whole blood assessed as CD11 level; format: functional, tissue-based; details: read-out: pA2 (converted)
# Cytochrome P450 2D6 = Cytochrome P450 2D6 (Homo sapiens, UniProt P10635); assay: Inhibition of CYP2D6; format: ADME
# Cavia porcellus = species on record: Cavia porcellus; assay: Inhibition of guinea pig FPR1
# Rattus norvegicus = species on record: Rattus norvegicus; assay: Inhibition of rat FPR1
# [6] = Fraction unbound in human; format: ADME, organism-based; details: in vivo
# [7] = Intrinsic clearance in Sprague-Dawley rat microsomes; format: ADME, Microsome
# [8] = Intrinsic clearance in Sprague-Dawley rat hepatocytes assessed per 10 '6 cells; format: ADME, cell-based, Liver, Hepatocyte
# Cytochrome P450 1A2 = biological target: T3, Cytochrome P450 1A2 (Homo sapiens, UniProt P05177); assay: Inhibition of CYP1A2; format: ADME
# T3 sequence (P05177 whole entry): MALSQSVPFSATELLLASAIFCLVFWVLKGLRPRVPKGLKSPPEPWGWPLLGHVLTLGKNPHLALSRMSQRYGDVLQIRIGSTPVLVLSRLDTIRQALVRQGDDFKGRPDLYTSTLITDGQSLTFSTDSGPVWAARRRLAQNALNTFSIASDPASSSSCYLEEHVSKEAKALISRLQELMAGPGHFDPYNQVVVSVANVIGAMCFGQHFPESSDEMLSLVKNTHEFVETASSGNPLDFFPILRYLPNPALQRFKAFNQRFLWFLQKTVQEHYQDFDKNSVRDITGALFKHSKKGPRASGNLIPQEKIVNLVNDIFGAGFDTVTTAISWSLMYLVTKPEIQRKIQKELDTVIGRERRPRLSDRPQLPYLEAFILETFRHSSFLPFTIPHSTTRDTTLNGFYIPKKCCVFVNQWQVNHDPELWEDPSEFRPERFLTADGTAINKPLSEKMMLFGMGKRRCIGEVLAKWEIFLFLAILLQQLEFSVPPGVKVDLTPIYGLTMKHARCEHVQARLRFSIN
# Cytochrome P450 2C9 = Cytochrome P450 2C9 (Homo sapiens, UniProt P11712); assay: Inhibition of CYP2C9; format: ADME
# [9] = Intrinsic clearance in human microsomes; format: ADME, Microsome
# [10] = Intrinsic clearance in human hepatocytes assessed per 10 '6 cells; format: ADME, cell-based, Liver, Hepatocyte
# [11] = Solubility of the compound; format: physicochemical
# [12] = Chemical stability of the compound assessed as half life; format: physicochemical
# Cytochrome P450 2C19 = Cytochrome P450 2C19 (Homo sapiens, UniProt P33261); assay: Inhibition of CYP2C19; format: ADME
# [13] = biological target: T4, fMet-Leu-Phe receptor (Mus musculus) (UniProt P33766); assay: Inhibition of mouse FPR1
# T4 sequence (whole entry): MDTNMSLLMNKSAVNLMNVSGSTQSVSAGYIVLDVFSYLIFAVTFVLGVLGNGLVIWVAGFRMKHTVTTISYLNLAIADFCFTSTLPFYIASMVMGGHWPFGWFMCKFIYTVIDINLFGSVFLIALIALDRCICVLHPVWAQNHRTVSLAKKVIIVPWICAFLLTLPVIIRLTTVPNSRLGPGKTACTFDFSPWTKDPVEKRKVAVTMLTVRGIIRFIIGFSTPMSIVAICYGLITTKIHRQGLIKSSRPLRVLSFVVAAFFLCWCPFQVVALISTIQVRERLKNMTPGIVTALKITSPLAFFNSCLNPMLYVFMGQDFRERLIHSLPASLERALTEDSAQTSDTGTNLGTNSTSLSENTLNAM
# Chain of Cytochrome P450 2C9 (P11712 whole entry): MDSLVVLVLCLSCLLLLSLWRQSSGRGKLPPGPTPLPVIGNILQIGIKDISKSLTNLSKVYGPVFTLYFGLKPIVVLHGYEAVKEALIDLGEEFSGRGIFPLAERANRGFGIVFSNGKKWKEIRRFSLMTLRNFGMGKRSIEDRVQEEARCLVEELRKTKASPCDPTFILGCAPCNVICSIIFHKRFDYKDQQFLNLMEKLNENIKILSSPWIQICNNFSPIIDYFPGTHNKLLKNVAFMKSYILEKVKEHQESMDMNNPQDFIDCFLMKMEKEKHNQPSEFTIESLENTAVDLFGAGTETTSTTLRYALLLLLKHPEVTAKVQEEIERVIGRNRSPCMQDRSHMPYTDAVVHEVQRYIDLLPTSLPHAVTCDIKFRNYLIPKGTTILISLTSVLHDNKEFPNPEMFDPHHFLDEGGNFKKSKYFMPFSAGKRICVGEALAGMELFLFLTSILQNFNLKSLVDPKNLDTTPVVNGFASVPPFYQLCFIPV
# Chain of Cytochrome P450 3A4 (P08684 whole entry): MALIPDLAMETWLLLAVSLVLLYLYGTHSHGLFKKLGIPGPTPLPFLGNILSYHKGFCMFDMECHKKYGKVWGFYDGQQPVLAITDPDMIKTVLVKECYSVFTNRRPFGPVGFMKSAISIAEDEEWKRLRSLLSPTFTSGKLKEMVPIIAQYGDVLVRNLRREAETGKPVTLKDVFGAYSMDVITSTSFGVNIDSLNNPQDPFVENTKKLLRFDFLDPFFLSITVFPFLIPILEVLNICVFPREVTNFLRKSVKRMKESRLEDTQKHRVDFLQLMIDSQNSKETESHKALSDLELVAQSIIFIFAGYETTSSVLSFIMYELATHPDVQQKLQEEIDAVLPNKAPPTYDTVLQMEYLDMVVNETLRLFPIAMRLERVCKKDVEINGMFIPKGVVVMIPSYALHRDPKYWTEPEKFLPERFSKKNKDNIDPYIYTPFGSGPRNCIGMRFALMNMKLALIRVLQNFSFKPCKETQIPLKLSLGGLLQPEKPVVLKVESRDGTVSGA
# Chain of Cytochrome P450 2D6 (P10635 whole entry): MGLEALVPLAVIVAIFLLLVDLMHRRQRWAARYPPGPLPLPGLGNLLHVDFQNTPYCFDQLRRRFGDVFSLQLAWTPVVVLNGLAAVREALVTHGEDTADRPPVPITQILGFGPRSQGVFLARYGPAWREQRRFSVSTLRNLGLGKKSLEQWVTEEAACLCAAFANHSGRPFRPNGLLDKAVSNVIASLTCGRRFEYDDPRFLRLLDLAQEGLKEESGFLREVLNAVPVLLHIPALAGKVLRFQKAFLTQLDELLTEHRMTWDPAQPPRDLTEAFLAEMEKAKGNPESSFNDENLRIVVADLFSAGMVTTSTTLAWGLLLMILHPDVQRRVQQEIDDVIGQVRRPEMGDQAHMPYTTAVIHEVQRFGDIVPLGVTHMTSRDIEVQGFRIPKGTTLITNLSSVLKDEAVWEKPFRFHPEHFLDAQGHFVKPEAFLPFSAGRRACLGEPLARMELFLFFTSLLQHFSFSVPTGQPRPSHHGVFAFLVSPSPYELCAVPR
# Chain of Cytochrome P450 2C19 (P33261 whole entry): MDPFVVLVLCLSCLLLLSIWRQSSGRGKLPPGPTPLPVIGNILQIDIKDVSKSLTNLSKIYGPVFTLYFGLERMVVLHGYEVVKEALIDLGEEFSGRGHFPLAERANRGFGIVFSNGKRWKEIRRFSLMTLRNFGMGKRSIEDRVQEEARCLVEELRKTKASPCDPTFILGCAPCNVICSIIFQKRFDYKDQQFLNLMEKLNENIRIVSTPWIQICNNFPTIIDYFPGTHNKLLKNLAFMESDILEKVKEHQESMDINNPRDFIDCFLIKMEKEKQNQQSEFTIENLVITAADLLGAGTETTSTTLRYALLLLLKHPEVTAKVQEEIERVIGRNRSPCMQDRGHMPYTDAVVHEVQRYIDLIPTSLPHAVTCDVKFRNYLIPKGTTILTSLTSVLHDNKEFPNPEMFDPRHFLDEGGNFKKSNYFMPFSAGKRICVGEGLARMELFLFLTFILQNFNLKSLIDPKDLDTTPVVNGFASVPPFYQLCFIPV
smiles,measurement,setting,value
Cc1ccc(S(=O)(=O)Nc2c(C(=O)N[C@@H](C)C(C)(C)C)c(C(F)(F)F)nn2-c2ccccc2)cc1,IC50,fMet-Leu-Phe receptor [1],25.1 nM
CCC(CC)NC(=O)c1cn(-c2ccccc2)nc1NS(=O)(=O)c1ccc(C)cc1,IC50,fMet-Leu-Phe receptor [1],10000 nM
Cc1nn(-c2ccc(F)cc2)c(NS(=O)(=O)c2cccnc2)c1C(=O)N[C@@H](C)C(C)(C)C,IC50,fMet-Leu-Phe receptor [1],1000 nM
Cc1ccc(S(=O)(=O)Nc2c(C(=O)NC3CCN(C)CC3)cnn2-c2ccccc2)cc1,inhibition,[2],< 25%
Cc1ccc(S(=O)(=O)Nc2c(C(=O)N[C@H](C)C(C)(C)C)c(C)nn2-c2ccccc2)cc1,IC50,fMet-Leu-Phe receptor [1],501 nM
CCC(CC)NC(=O)c1cnn(-c2ccccn2)c1NS(=O)(=O)c1ccc(C)cc1,IC50,fMet-Leu-Phe receptor [1],20000 nM
CCC(CC)NC(=O)c1cnn(-c2ccccc2)c1NS(=O)(=O)c1ccc(C)cc1,IC50,fMet-Leu-Phe receptor [1],2000 nM
Cc1nn(-c2ccc(F)cc2)c(NS(=O)(=O)c2ccc(C#N)cc2)c1C(=O)N[C@@H](C)C(C)(C)C,logD,[3],0.5
same,fraction unbound,[4],0.1
same,IC50,Cytochrome P450 3A4,> 10000 nM
same,Kb,fMet-Leu-Phe receptor [5],126 nM
same,IC50,Cytochrome P450 2D6,> 10000 nM
same,inhibition,Cavia porcellus,inactive
same,inhibition,Rattus norvegicus,inactive
same,fraction unbound,[6],0.06
same,microsomal CLint,[7],13 µL/min/mg
same,hepatocyte CLint,[8],4 µL/min/1e6 cells
same,IC50,Cytochrome P450 1A2,> 10000 nM
same,IC50,Cytochrome P450 2C9,> 10000 nM
same,microsomal CLint,[9],5 µL/min/mg
same,hepatocyte CLint,[10],< 3 µL/min/1e6 cells
same,solubility,[11],> 1000 µM
same,half-life,[12],> 41.7 days
same,IC50,Cytochrome P450 2C19,> 10000 nM
same,inhibition,[13],inactive
same,IC50,fMet-Leu-Phe receptor [1],25.1 nM
Cc1ccc(S(=O)(=O)Nc2c(C(=O)NC3CCCCC3)c(C)nn2-c2ccccc2)cc1,IC50,fMet-Leu-Phe receptor [1],794 nM
CCC(CC)NC(=O)c1cnn(-c2ccccc2)c1NS(=O)(=O)C1CCCC1,IC50,fMet-Leu-Phe receptor [1],5010 nM
CCC(CC)NC(=O)c1cnn(-c2ccccc2)c1NS(=O)(=O)c1ccc(-c2cnco2)cc1,IC50,fMet-Leu-Phe receptor [1],5010 nM
Cc1ccc(S(=O)(=O)Nc2c(C(=O)NCc3ccc(C)cc3C)cnn2-c2ccccc2)cc1,IC50,fMet-Leu-Phe receptor [1],794 nM
CCC(CC)NC(=O)c1ncn(-c2ccccc2)c1NS(=O)(=O)c1ccc(C)cc1,IC50,fMet-Leu-Phe receptor [1],1580 nM
CCC(CC)NC(=O)c1cnn(C)c1NS(=O)(=O)c1ccc(C)cc1,inhibition,[2],< 25%
CCCC(CC)NC(=O)c1cnn(-c2ccccc2)c1NS(=O)(=O)c1ccc(C)cc1 (configuration not stated),IC50,fMet-Leu-Phe receptor [1],316 nM
Cc1nn(-c2ccc(F)cc2)c(NS(=O)(=O)c2ccc(C(F)(F)F)cc2)c1C(=O)N[C@@H](C)C(C)(C)C,IC50,fMet-Leu-Phe receptor [1],12.6 nM
Cc1ccc(S(=O)(=O)Nc2c(C(=O)N[C@@H](C)C(C)(C)C)c(C)nn2-c2ccccc2)cc1,logD,[3],1.4
same,fraction unbound,[4],0.042
same,IC50,Cytochrome P450 3A4,> 10000 nM
same,Kb,fMet-Leu-Phe receptor [5],398 nM
same,IC50,Cytochrome P450 2D6,> 10000 nM
same,inhibition,Cavia porcellus,inactive
same,inhibition,Rattus norvegicus,inactive
same,fraction unbound,[6],0.011
same,microsomal CLint,[7],53 µL/min/mg
same,hepatocyte CLint,[8],12 µL/min/1e6 cells
same,IC50,Cytochrome P450 1A2,> 10000 nM
same,IC50,Cytochrome P450 2C9,> 10000 nM
same,microsomal CLint,[9],40 µL/min/mg
same,hepatocyte CLint,[10],7 µL/min/1e6 cells
same,solubility,[11],> 1000 µM
same,half-life,[12],> 41.7 days
same,IC50,Cytochrome P450 2C19,> 10000 nM
same,inhibition,[13],inactive
same,IC50,fMet-Leu-Phe receptor [1],79.4 nM
CCC(CC)NC(=O)c1cnn(Cc2ccccc2)c1NS(=O)(=O)c1ccc(C)cc1,IC50,fMet-Leu-Phe receptor [1],5010 nM
CCC(CC)NC(=O)c1c(C)nn(-c2ccccc2)c1NS(=O)(=O)c1ccc(C)cc1,IC50,fMet-Leu-Phe receptor [1],501 nM
Cc1ccc(S(=O)(=O)Nc2c(C(=O)NC3CCOCC3)cnn2-c2ccccc2)cc1,IC50,fMet-Leu-Phe receptor [1],10000 nM
CCC(CC)NC(=O)c1cnn(-c2ccccc2)c1NS(=O)(=O)c1ccccc1C,IC50,fMet-Leu-Phe receptor [1],6310 nM
CCN(C(=O)c1cnn(-c2ccccc2)c1NS(=O)(=O)c1ccc(-c2cnco2)cc1)C1CCCCC1,IC50,fMet-Leu-Phe receptor [1],79.4 nM
Cc1ccc(S(=O)(=O)Nc2c(C(=O)N(C)C3CCCCC3)cnn2-c2ccccc2)cc1,IC50,fMet-Leu-Phe receptor [1],1580 nM
CCC(CC)NC(=O)c1cnn(-c2ccc(C#N)cc2)c1NS(=O)(=O)c1ccc(C)cc1,IC50,fMet-Leu-Phe receptor [1],15800 nM
CNC(=O)c1cnn(-c2ccccc2)c1NS(=O)(=O)c1ccc(C)cc1,inhibition,[2],< 25%
Cc1ccc(S(=O)(=O)Nc2c(C(=O)NC3CCCCC3)cnn2-c2ccccc2)cc1,IC50,fMet-Leu-Phe receptor [1],3980 nM
Cc1ccc(S(=O)(=O)Nc2c(C(=O)NC3CCOCC3)c(C)nn2-c2ccccc2)cc1,IC50,fMet-Leu-Phe receptor [1],5010 nM
Cc1ccc(S(=O)(=O)Nc2c(C(=O)NC(C)C)c(C)nn2-c2ccccc2)cc1,IC50,fMet-Leu-Phe receptor [1],6310 nM
Cc1ccc(S(=O)(=O)Nc2c(C(=O)N(C)C3CCCCC3)c(C)nn2-c2ccccc2)cc1,IC50,fMet-Leu-Phe receptor [1],3160 nM
Cc1ccc(S(=O)(=O)Nc2c(C(=O)NC(C)C(C)(C)C)c(C)nn2-c2ccccc2)cc1 (configuration not stated),IC50,fMet-Leu-Phe receptor [1],126 nM
Cc1nn(-c2ccccc2)c(NS(=O)(=O)C2CCCCC2)c1C(=O)N[C@@H](C)C(C)(C)C,IC50,fMet-Leu-Phe receptor [1],1000 nM
CCC(CC)NC(=O)c1cnn(-c2ccccc2Cl)c1NS(=O)(=O)c1ccc(C)cc1,IC50,fMet-Leu-Phe receptor [1],10000 nM
Cc1ccc(S(=O)(=O)Nc2c(C(=O)NC3CCCCC3C)cnn2-c2ccccc2)cc1 (mixture of isomers),IC50,fMet-Leu-Phe receptor [1],1000 nM
Cc1ccc(S(=O)(=O)Nc2c(C(=O)NC3CCCCC3C)c(C)nn2-c2ccccc2)cc1 (mixture of isomers),IC50,fMet-Leu-Phe receptor [1],158 nM
CCC(CC)NC(=O)c1nnn(-c2ccccc2)c1NS(=O)(=O)c1ccc(C)cc1,IC50,fMet-Leu-Phe receptor [1],3980 nM
Cc1ccc(S(=O)(=O)Nc2c(C(=O)NCC(C)(C)C)c(C)nn2-c2ccccc2)cc1,IC50,fMet-Leu-Phe receptor [1],2000 nM
CCC(CC)NC(=O)c1cnn(C(C)C)c1NS(=O)(=O)c1ccc(C)cc1,IC50,fMet-Leu-Phe receptor [1],10000 nM
Cc1nn(-c2ccccc2)c(NS(=O)(=O)c2cccc(CN3CCOCC3)c2)c1C(=O)N[C@@H](C)C(C)(C)C,inhibition,[2],< 25%
CCC(CC)NC(=O)c1cnn(-c2ccccc2)c1NS(=O)(=O)c1ccccc1,IC50,fMet-Leu-Phe receptor [1],5010 nM
Cc1ccc(S(=O)(=O)Nc2c(C(=O)NCc3ccccc3)cnn2-c2ccccc2)cc1,IC50,fMet-Leu-Phe receptor [1],10000 nM
CCC(C)NC(=O)c1c(C)nn(-c2ccccc2)c1NS(=O)(=O)c1ccc(C)cc1 (configuration not stated),IC50,fMet-Leu-Phe receptor [1],158 nM
